From patent US5585380A, “Modulation of cellular response to external stimuli” (priority 1995, dated 1996)

How the values were obtained:
T cell proliferation = details: Singer et al., Bone Marrow Transplantation (in press); cited from earlier work
[1] = tested on: NIH3T3 cell line (D5C3) transformed with temperature-sensitive v-abl mutant gene; assay: Blocking transformed phenotype of D5C3 cells; assay type: cell-based, murine; details: pentoxifylline 1 mM, Ciprofloxacin 50 μg/ml
[2] = tested on: PA and DAG levels in human glomerular mesangial cells; assay: Invention assay: HPLC of lipids from IL-1-stimulated mesangial cells; assay type: cell-based; details: HMC incubated with diacylglycerol kinase inhibitor
Description: The compounds of Formula I are shown to modulate the effects of primary stimuli which elevate levels of the relevant subspecies of PA and DAG using the assay system of the invention. In general for the assay, the cells to be tested are first incubated with the primary stimulating agent for various time periods and fixed in ice-cold methanol. The lipids are extracted using, for example, chloroform:methanol 2:1 (v/v), and the extracts are then subjected to HPLC as described by Bursten and Harris, Biochemistry (1991)------. In this method, a Rainin mu-Porasil column is used with a 3:4 hexane:propanol organic carrier and a 1-10% water gradient during the first 10 minutes of separation. Detection of the peaks in the elution pattern is by absorption in the range of ultraviolet which detects isolated double bonds. Thus, the relevant peaks of unsaturated PA and DAG are shown in the elution pattern. It is important to note that the assay method permits discrimination between various forms of PA and DAG so that those relevant to the pathway affected by the compounds of Formula I can be measured directly. Confirmation of the nature of the acyl substituents of these components is accomplished using fast-atom bombardment mass spectroscopy. Thus, the relevant unsaturated (non-arachidonic) PA and DAG subspecies may be detected. The time periods employed are 5-60 seconds after stimulation with the primary stimulus, such as a cytokine. This technique permits assessment of the levels of various lipid components as a function of time.
To test the effect of the compounds of the invention, the candidate compound is included in the initial incubation at various concentrations. Fixing, extraction and HPLC are conducted as above. The effect of the candidate compound is then reflected in a lowering of the relevant PA and DAG levels as compared to the cells without candidate in the control as illustrated hereinbelow.
Human glomerular mesangial cells were incubated with IL-1 for various time periods of 5-60 seconds and the cells were fixed in ice-cold methanol, and the lipids extracted using chloroform:methanol 2:1 (v/v). It is very important that the fixing/extraction process be conducted quickly so that the decomposition of unstable intermediates is halted.
The extracts were subjected to HPLC on a Rainin mu-Porasil column with a 3:4 hexane:propanol organic carrier and a 1-10% water gradient during the first 10 minutes of separation. The relative concentration of each lipid species is determined using absorption at 206 nm (A206), which follows unsaturated acyl content of lipid species. […] The absolute mass of each lipid species is determined by lisolation of the lipid using a fraction collector, repurification on the HPLC column. […] Protein concentration is determined using the Bradford technique. […]

| SMILES | suppression of T cell proliferation (T cell proliferation) | other results |
| --- | --- | --- |
| CC(O)C(O)CCCn1c(=O)c2c(ncn2C)n(C)c1=O (centres unmarked) [M3, 1-(4,5-dihydroxyhexyl) -3,7-dimethylxanthine] | minimal or no suppression | – |
| Cn1c(=O)n(CCCCC(C)(C)O)c(=O)c2[nH]cnc21 [HWA138, reference compound] | minimal or no suppression | – |
| CCOCn1cnc2c1c(=O)n(CCCCC(C)(C)O)c(=O)n2C [HWA448, reference compound] | active | – |
| CC(O)CCCCn1c(=O)c2c(ncn2C)n(C)c1=O (centres unmarked) [M1, 1-(5-hydroxyhexyl)-3,7-dimethylxanthine] | active | – |
| Cn1cnc2c1c(=O)n(CCCCC(=O)O)c(=O)n2C [M4, 1-(4-carboxybutyl)-3,7-dimethylxanthine] | minimal or no suppression | – |
| Cn1cnc2c1c(=O)n(CCCC(=O)O)c(=O)n2C [M5, 1-(3-carboxypropyl)-3,7-dimethylxanthine] | minimal or no suppression | – |
| O=C(O)c1cn(C2CC2)c2cc(N3CCNCC3)c(F)cc2c1=O [Ciprofloxacin] | – | effect on the transformed phenotype [1]: significant effect |
| Cc1nc2sccn2c(=O)c1CCN1CCC(=C(c2ccccc2)c2ccc(F)cc2)CC1 [R 50922] | – | HPLC pattern (reappearance of PA after IL-1) [2]: does not alter the HPLC pattern |
